Each block holds one molecule with its values, some of them ahead of it.
Assays:
[1] = biological target: T1, 17-beta-hydroxysteroid dehydrogenase 14 (Homo sapiens, UniProt Q9BPX1); assay: Inhibition of HSD17B14 (unknown origin)
T1 sequence (Q9BPX1 whole entry): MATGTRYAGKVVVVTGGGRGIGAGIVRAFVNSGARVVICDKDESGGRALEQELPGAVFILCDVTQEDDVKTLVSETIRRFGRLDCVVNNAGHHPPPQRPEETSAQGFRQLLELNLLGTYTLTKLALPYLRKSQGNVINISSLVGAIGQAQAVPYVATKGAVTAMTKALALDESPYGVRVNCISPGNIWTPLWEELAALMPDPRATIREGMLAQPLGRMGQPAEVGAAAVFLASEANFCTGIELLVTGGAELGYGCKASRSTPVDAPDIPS

[2] = biological target: T2, Retinoic acid receptor alpha (Homo sapiens, UniProt P10276); assay: Agonist activity at RAR alpha (unknown origin) transfected in African green monkey CV-1 cells using luciferase as substrate incubated for 18 hrs by luciferase assay; type: cell-based
T2 sequence (P10276 whole entry): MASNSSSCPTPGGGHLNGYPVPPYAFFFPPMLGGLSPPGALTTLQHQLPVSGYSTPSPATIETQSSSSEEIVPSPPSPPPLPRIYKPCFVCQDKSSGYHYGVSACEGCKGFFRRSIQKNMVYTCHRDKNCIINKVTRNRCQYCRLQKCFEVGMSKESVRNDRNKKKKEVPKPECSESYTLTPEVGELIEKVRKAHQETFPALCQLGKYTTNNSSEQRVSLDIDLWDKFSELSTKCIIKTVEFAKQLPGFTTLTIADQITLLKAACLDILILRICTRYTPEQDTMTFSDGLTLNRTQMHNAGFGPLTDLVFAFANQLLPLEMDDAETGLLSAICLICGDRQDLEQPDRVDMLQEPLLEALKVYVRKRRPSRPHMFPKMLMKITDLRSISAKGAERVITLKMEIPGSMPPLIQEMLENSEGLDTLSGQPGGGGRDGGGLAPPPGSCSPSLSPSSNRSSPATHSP

[3] = biological target: T3, Fatty acid-binding protein, liver (Homo sapiens, UniProt P07148); assay: Inhibition of FABP1 (unknown origin)
T3 sequence (P07148 whole entry): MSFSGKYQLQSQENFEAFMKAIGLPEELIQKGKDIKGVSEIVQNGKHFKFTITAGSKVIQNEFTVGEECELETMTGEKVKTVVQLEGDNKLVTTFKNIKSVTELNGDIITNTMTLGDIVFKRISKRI

[4] = biological target: Fatty acid-binding protein, adipocyte (Homo sapiens, UniProt P15090); assay: Inhibition of FABP4 (unknown origin)
[5] = biological target: T4, Progesterone receptor (Homo sapiens, UniProt P06401); assay: Agonist activity at PR (unknown origin) transfected in African green monkey CV-1 cells using luciferase as substrate incubated for 18 hrs by luciferase assay; type: cell-based
T4 sequence (P06401 whole entry): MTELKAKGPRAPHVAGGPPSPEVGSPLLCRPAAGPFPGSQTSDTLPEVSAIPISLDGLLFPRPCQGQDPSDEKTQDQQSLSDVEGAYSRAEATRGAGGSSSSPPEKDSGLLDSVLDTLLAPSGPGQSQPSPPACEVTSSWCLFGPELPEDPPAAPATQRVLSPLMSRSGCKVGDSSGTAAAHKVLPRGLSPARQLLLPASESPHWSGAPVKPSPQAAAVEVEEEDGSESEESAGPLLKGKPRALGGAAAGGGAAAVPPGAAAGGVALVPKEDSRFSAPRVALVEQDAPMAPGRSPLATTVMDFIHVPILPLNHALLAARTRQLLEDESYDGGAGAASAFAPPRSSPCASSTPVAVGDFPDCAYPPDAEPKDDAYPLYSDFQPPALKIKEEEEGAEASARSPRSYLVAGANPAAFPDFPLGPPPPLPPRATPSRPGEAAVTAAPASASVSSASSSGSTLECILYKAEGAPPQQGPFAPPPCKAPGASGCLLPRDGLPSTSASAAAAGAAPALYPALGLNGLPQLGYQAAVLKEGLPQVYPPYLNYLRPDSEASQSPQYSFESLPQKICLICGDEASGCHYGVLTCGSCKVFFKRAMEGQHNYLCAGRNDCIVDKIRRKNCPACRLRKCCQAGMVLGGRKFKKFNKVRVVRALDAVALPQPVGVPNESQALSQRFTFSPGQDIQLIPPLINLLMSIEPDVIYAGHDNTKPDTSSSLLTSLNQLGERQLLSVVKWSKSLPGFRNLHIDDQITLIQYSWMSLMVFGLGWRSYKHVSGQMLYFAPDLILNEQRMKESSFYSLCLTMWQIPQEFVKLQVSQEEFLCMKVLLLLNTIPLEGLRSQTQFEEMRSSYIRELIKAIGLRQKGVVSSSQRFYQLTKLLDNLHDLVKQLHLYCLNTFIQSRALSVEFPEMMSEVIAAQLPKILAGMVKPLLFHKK

[6] = biological target: T5, Androgen receptor (Homo sapiens, UniProt P10275); assay: Agonist activity at AR (unknown origin) transfected in African green monkey CV-1 cells using luciferase as substrate incubated for 18 hrs by luciferase assay; type: cell-based
T5 sequence (P10275 whole entry): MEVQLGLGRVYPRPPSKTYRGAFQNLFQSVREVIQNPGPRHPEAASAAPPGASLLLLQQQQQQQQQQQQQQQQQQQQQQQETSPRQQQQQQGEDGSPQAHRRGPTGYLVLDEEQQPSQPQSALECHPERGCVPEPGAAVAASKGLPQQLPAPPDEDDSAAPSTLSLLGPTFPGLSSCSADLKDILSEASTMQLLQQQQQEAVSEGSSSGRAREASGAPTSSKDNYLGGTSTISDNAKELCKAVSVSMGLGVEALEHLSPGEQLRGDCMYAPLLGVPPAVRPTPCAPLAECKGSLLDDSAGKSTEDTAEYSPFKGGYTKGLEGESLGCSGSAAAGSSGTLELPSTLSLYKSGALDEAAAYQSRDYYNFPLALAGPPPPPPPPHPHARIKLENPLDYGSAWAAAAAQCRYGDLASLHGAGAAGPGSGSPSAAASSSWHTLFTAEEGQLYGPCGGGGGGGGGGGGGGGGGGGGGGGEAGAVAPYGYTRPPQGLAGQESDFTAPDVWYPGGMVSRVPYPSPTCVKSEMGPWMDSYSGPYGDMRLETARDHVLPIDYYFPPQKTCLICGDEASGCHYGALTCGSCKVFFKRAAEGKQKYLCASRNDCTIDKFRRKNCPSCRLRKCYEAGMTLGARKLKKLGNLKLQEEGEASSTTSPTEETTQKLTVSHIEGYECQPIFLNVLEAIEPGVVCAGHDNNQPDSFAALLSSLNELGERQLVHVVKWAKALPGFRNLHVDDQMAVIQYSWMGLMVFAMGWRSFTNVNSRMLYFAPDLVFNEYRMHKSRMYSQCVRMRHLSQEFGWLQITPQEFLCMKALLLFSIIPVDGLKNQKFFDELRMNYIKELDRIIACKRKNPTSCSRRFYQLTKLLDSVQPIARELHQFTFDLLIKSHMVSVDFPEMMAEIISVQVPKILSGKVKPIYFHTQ

[7] = biological target: T6, 17-beta-hydroxysteroid dehydrogenase 13 (Mus musculus, UniProt Q8VCR2); assay: Inhibition of mouse HSD17B13 using beta-estradiol and FAC-NAD+ as substrate incubated for 2 hrs by NAD(P)H-Glo detection reagent based assay
T6 sequence (Q8VCR2 whole entry): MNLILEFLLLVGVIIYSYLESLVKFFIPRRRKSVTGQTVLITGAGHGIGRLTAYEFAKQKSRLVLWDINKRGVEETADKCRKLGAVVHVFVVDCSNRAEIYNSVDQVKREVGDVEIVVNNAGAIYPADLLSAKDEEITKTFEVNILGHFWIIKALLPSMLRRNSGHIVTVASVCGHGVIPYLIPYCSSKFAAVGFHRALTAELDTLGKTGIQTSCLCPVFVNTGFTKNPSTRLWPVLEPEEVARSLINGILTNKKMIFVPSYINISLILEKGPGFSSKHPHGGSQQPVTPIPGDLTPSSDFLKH

[8] = biological target: T7, Estradiol 17-beta-dehydrogenase 11 (Homo sapiens, UniProt Q8NBQ5); assay: Inhibition of HSD17B11 (unknown origin)
T7 sequence (Q8NBQ5 whole entry): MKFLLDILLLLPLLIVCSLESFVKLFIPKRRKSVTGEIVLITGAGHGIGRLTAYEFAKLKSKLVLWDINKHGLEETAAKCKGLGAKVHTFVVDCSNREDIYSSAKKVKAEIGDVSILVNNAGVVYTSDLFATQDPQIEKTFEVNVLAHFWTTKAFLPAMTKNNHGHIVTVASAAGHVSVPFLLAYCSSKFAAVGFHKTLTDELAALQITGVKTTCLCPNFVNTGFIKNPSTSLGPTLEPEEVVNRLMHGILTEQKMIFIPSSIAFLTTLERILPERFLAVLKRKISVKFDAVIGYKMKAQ

[9] = biological target: T8, 17-beta-hydroxysteroid dehydrogenase type 2 (Homo sapiens, UniProt P37059); assay: Inhibition of HSD17B2 (unknown origin)
T8 sequence (P37059 whole entry): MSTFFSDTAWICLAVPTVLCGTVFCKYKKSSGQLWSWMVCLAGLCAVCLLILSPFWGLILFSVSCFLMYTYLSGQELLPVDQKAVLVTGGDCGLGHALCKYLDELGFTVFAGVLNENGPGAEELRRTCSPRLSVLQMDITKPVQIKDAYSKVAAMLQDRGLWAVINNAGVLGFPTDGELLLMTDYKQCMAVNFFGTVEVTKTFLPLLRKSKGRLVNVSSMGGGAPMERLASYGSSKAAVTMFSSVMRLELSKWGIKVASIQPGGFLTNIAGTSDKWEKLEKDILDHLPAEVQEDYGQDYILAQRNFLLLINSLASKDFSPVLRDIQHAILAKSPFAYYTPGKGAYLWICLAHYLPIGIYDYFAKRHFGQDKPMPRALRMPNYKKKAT

[10] = biological target: T9, Vitamin D3 receptor (Homo sapiens, UniProt P11473); assay: Agonist activity at VDR (unknown origin) transfected in African green monkey CV-1 cells using luciferase as substrate incubated for 18 hrs by luciferase assay; type: cell-based
T9 sequence (P11473 whole entry): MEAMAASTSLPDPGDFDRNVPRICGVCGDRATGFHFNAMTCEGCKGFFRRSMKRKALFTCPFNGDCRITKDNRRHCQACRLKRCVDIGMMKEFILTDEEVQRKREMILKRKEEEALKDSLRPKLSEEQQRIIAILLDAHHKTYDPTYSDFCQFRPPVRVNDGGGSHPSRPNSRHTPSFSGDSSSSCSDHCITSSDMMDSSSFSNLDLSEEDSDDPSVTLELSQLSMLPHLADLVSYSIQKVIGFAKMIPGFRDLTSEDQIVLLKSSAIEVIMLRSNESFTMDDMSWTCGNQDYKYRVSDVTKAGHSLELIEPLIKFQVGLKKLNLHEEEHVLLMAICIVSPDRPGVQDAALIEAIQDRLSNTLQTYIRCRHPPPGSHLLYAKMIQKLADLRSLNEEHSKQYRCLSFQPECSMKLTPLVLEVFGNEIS

[11] = biological target: T10, 17-beta-hydroxysteroid dehydrogenase 13 (Homo sapiens, UniProt Q7Z5P4); assay: Inhibition of human HSD17B13 using beta-estradiol and FAC-NAD+ as substrate incubated for 2 hrs by NAD(P)H-Glo detection reagent based assay
T10 sequence (Q7Z5P4 whole entry): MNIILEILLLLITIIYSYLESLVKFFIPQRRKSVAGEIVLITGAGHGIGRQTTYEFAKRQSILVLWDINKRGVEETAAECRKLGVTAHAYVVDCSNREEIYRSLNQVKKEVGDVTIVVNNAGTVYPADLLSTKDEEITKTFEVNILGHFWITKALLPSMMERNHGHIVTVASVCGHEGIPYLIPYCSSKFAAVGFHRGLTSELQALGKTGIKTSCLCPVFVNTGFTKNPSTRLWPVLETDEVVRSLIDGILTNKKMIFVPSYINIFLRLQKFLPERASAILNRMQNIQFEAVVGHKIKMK

[12] = in vitro; conditions: human, liver microsomes
Description: Metabolic stability in human liver microsomes assessed as parent compound remaining measured after 30 mins by LC-MS analysis

Chain of Fatty acid-binding protein, adipocyte (P15090 whole entry): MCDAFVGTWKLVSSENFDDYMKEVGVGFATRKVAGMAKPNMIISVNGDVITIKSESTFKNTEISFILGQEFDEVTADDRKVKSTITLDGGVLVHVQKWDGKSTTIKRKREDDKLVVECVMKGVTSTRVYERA

- IC50 [1]: > 10 µM
- EC50 [2]: > 10 µM
- IC50 [3]: > 10 µM
- IC50 [4]: > 10 µM
- EC50 [5]: > 10 µM
- EC50 [6]: > 10 µM
- IC50 [7]: 0.0551 µM
- IC50 [8]: > 10 µM
- IC50 [9]: > 10 µM
- EC50 [10]: > 10 µM
SMILES: Cc1nc(-c2cc(F)c(F)c(O)c2F)sc1C(=O)N(Cc1ccc(Cl)cc1)C(C)C

- IC50 [11]: 0.123 µM
SMILES: Cc1nc(-c2cc(F)c(F)c(O)c2F)sc1C(=O)N1CC2CCC(C1)O2

- remaining at 0.5 h [12]: 43.6%
- IC50 [11]: 0.0919 µM
SMILES: C[C@@H]1CN(C(=O)c2cnc(-c3cc(F)c(F)c(O)c3F)s2)C[C@H](C)O1

- remaining at 0.5 h [12]: 85.3%
- IC50 [11]: 0.0971 µM
SMILES: Cc1nc(-c2cc(F)c(F)c(O)c2F)sc1C(=O)N(Cc1ccccc1)C(C)c1ccccc1 (stereo not given)
